For the assay, the target named is T1, Epidermal growth factor receptor (EGFR) (Homo sapiens, UniProt P00533).
T1 construct: extracellular domain (ECD), recombinant human
The assay can be described thus: MST with recombinant EGFR ECD (also BIAcore SPR, Kd […]; CETSA in A549 and H1975). The class given is binding. In general terms: SPR reads the build-up and loss of mass on a sensor chip optically.

T1 sequence (P00533 25-645 limits assumed): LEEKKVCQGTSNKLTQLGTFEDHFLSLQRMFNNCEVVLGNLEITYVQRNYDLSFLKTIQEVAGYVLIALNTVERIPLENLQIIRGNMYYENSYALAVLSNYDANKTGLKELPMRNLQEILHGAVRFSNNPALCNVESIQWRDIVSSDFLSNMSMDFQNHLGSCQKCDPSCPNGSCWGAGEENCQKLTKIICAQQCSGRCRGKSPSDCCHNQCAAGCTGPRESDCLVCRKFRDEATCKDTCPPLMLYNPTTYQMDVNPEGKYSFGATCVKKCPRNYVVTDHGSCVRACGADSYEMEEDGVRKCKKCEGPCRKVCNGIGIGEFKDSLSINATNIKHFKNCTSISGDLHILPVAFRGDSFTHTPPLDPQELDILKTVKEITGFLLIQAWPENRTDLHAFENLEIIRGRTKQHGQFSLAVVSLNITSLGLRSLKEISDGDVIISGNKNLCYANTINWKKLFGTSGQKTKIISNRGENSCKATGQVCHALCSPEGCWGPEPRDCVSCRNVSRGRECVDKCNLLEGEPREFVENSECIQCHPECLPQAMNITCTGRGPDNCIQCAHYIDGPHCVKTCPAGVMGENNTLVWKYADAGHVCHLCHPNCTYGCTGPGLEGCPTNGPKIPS

In the case of `C=C(C)[C@@H]1CC[C@]2(C(=O)N3CCC(N4CCCCC4)CC3)CC[C@]3(C)[C@H](CC[C@@H]4[C@@]5(C)CC[C@H](O)[C@@](C)(CO)[C@@H]5CC[C@]43C)[C@@H]12` [compound 187, DPBA], the Kd is 38.4 ± 1.75 µM.

The Kd is the free concentration of one partner at which half of the binding sites on the other are occupied at equilibrium, for simple one-to-one binding.
